# Reference: patent US11964996B2, “2-alkynylmannose derivative and application thereof” (priority 2020, dated 2024)
# Biological target: T1, FimH proteins (Escherichia coli, UniProt Q1R2J4)
# T1 construct: endogenous in cells; host or cells: UPEC strain UTI89 (whole bacteria)
# Assay: hemagglutination inhibition (HAI) assay: UPEC UTI89 with guinea pig red blood cells
# Type: cell-based, uropathogenic Escherichia coli (UPEC) UTI89
# Conditions: read-out: HAI EC90 (minimum concentration for inhibiting hemagglutination)
# Procedure: In the present example, the mannose derivatives A1 to A107 that were prepared in Examples 1 to 12 were analyzed in hemagglutination inhibition (HAI) assays to determine inhibitory effects of the compounds on the function/activity of FimH proteins.
# 1. Preparation of a guinea pig red blood cell solution: an adult guinea pig was anesthetized with ethyl ether, blood was sampled from the heart, placed in an EDTA blood collection tube, and centrifuged at 2,000 rpm for 5 min, serum was removed, the sample was transferred in a centrifuge tube (15 mL), sterilized PBS was added, the sample was centrifuged at 1,500 rpm for 10 min, a supernatant was removed, the sample was transferred in a centrifuge tube (50 mL), PBS was added, the sample was centrifuged at 1,500 rpm for 10 min and repeatedly washed twice, and red blood cells were slightly aspirated into a new centrifuge tube (50 mL) to obtain a 5% guinea pig red blood cell solution.
# 2. Preparation of a bacteria solution: a UPEC cell line UTI89 was inoculated on a medium plate and cultured in an incubator at 37° C. overnight. Single colonies were picked and inoculated in an LB medium in a sterilized conical flask, and cultured at 37° C. and 170 r/min overnight. When an OD value at 540 nm was about 0.8 on a microplate reader, the bacterial concentration was about 10^8-10^9 cfu/mL, the bacteria solution was centrifuged at 2,000 rpm for 10 min, a supernatant was removed, and 1 mL of bacteria solution was prepared into 0.1 mL of PBS bacteria solution. […] The bacteria and the medium were uniformly mixed by shaking, and reacted in an incubator at 25° C. for about 20-40 min. When the plate was read, the wells in which complete agglutination occurred were used as 4HAU for the hemagglutination titer of the bacteria. For example, if the endpoint titer of hemagglutination is 1:256, the dilution multiple of the 4HAU antigen is 1:64 (256 divided by 4). Bacteria solutions at corresponding concentrations were prepared according to the experimental results.
# 3. Activity assay: a compound to be tested or a standard product was placed in a 96-well microtest plate, 50 μL of drug at an initial concentration of 200 μM was placed in the first well, and from the second well, 25 μL of PBS was added to each well to dilute the drug in proportion. The drug and the medium in the first well were mixed, 25 μL of mixed drug solution was placed in the second well, the drug solution was diluted in sequence to the last well, and 25 μL of drug solution was removed. 25 μL of bacteria solution was placed in each well of the culture plate containing the diluted drug, and cultured at 37° C. for 40 min. 25 μL of 5% guinea pig red blood cell suspension was placed in each well, and slightly uniformly mixed with the drug, and the plate was placed at 4° C. for about 1 h. When results were determined, the plate was tilted 60°, and whether the red blood cells flowed like teardrops was observed.
# Mannosyl proteins are expressed on the surface of red blood cells in a guinea pig, which can bind to FimH proteins of UTI89 to cause hemagglutination. It can be observed with the naked eyes that the red blood cells form film-like agglutination at the bottom of the well, and loose red dots can be seen in the center. The FimH protein inhibitor competitively binds to FimH proteins to inhibit hemagglutination. It can be observed with the naked eyes that all the red blood cells sink and concentrate at the bottom of the well to form dense dots. The minimum concentration for inhibiting hemagglutination is expressed as an EC90 value of a compound. The final concentration of the compound in the first well is 66700 nM, the concentration in the second well is half that in the first well, the concentration in the third well is half that in the second well, and so on. […] A low EC90 value indicates high activity of a compound.
row,Structure (SMILES),EC90
1,OC[C@H]1O[C@H](C#Cc2cnn(C3CCC(F)(F)CC3)c2)[C@](O)(C#Cc2ccccc2)[C@@H](O)[C@@H]1O [Compound A53],8 nM
2,O=c1ccc(C#C[C@H]2O[C@H](CO)[C@@H](O)[C@H](O)[C@@]2(O)C#Cc2ccccc2)cn1C1CCCCC1 [Compound A54],4 nM
3,O=c1ccc(C#C[C@H]2O[C@H](CO)[C@@H](O)[C@H](O)[C@@]2(O)C#Cc2ccccc2)cn1-c1ccccc1 [Compound A55],64 nM
4,CCC(C)O[C@H]1O[C@H](CO)[C@@H](O)[C@H](O)[C@@]1(O)C#Cc1ccc(F)cc1 (some centres unmarked) [Compound A56],520 nM
5,CCC(C)O[C@H]1O[C@H](CO)[C@@H](O)[C@H](O)[C@@]1(O)C#Cc1cccc(Cl)c1 (some centres unmarked) [Compound A57],260 nM
6,CCC(C)O[C@H]1O[C@H](CO)[C@@H](O)[C@H](O)[C@@]1(O)C#Cc1cccc(OC)c1 (some centres unmarked) [Compound A58],520 nM
7,OC[C@H]1O[C@H](C#Cc2cnn(C3CCCCC3)c2)[C@](O)(C#CC2CC2)[C@@H](O)[C@@H]1O [Compound A59],4 nM
8,CO[C@H]1CC[C@H](n2cc(C#C[C@H]3O[C@H](CO)[C@@H](O)[C@H](O)[C@@]3(O)C#Cc3ccccc3)cn2)CC1 [Compound A60],2 nM
9,OC[C@H]1O[C@H](C#Cc2cnn([C@@H]3C[C@H]4C[C@H]4C3)c2)[C@](O)(C#Cc2ccccc2)[C@@H](O)[C@@H]1O [Compound A61],8 nM
10,OC[C@H]1O[C@H](C#Cc2cnn([C@H]3C[C@H]4C[C@H]4C3)c2)[C@](O)(C#Cc2ccccc2)[C@@H](O)[C@@H]1O [Compound A62],0.5 nM
11,CC(n1cc(C#C[C@H]2O[C@H](CO)[C@@H](O)[C@H](O)[C@@]2(O)C#Cc2ccccc2)cn1)C(F)(F)F (some centres unmarked) [Compound A63],16 nM
12,OC[C@H]1O[C@H](C#Cc2cnn(-c3ncccc3Cl)c2)[C@](O)(C#Cc2ccccc2)[C@@H](O)[C@@H]1O [Compound A64],4 nM
13,N#Cc1ccccc1-n1cc(C#C[C@H]2O[C@H](CO)[C@@H](O)[C@H](O)[C@@]2(O)C#Cc2ccccc2)cn1 [Compound A65],64 nM
14,OC[C@H]1O[C@H](C#Cc2cnn(-c3cccc(Cl)c3)c2)[C@](O)(C#Cc2ccccc2)[C@@H](O)[C@@H]1O [Compound A66],0.13 nM
15,OC[C@H]1O[C@H](C#Cc2cnn(-c3ccc(Cl)cc3)c2)[C@](O)(C#Cc2ccccc2)[C@@H](O)[C@@H]1O [Compound A67],0.13 nM
16,OC[C@H]1O[C@H](C#Cc2cnn(-c3ccc(F)cc3)c2)[C@](O)(C#Cc2ccccc2)[C@@H](O)[C@@H]1O [Compound A68],8 nM
17,OC[C@H]1O[C@H](C#Cc2cnn(C3CCCCC3O)c2)[C@](O)(C#Cc2ccccc2)[C@@H](O)[C@@H]1O (some centres unmarked) [Compound A69],16 nM
18,OC[C@H]1O[C@H](C#Cc2cnn(-c3ccccc3Cl)c2)[C@](O)(C#CC2CC2)[C@@H](O)[C@@H]1O [Compound A70],8 nM
19,COc1cnc(-n2cc(C#C[C@H]3O[C@H](CO)[C@@H](O)[C@H](O)[C@@]3(O)C#Cc3cnn(C)c3)cn2)nc1 [Compound A71],8 nM
20,OC[C@H]1O[C@H](C#Cc2cnn(-c3ccc(Cl)cc3)c2)[C@](O)(C#CC2CC2)[C@@H](O)[C@@H]1O [Compound A72],< 0.1 nM
21,OC[C@H]1O[C@H](C#Cc2cnn(-c3ccc(Cl)cc3)c2)[C@](O)(C#Cc2cccnc2)[C@@H](O)[C@@H]1O [Compound A73],8 nM
22,Cn1cc(C#C[C@@]2(O)[C@@H](C#Cc3cnn(-c4ccc(Cl)cc4)c3)O[C@H](CO)[C@@H](O)[C@@H]2O)cn1 [Compound A74],0.13 nM

row,Structure (SMILES),EC90
1,CO[C@H]1CC[C@H](n2cc(C#C[C@H]3O[C@H](CO)[C@@H](O)[C@H](O)[C@@]3(O)C#Cc3cc(F)cc(F)c3)cn2)CC1 [Compound A75],8 nM
2,OC[C@H]1O[C@H](C#Cc2cnn([C@H]3CC[C@H](O)CC3)c2)[C@](O)(C#Cc2ccc(F)cc2)[C@@H](O)[C@@H]1O [Compound A76],4 nM
3,OC[C@H]1O[C@H](C#Cc2cnn([C@H]3CC[C@H](O)CC3)c2)[C@](O)(C#Cc2ccccc2)[C@@H](O)[C@@H]1O [Compound A77],2 nM
4,CCn1cc(C#C[C@@]2(O)[C@@H](C#Cc3cnn(-c4ccc(Cl)cc4)c3)O[C@H](CO)[C@@H](O)[C@@H]2O)cn1 [Compound A78],< 0.1 nM
5,Cn1cc(C#C[C@@]2(O)[C@@H](C#Cc3cnn(-c4cnn(C)c4)c3)O[C@H](CO)[C@@H](O)[C@@H]2O)cn1 [Compound A79],16 nM
6,CCC#C[C@@]1(O)[C@@H](C#Cc2cnn(-c3ccc(Cl)cc3)c2)O[C@H](CO)[C@@H](O)[C@@H]1O [Compound A80],2 nM
7,COc1ccc(-n2cc(C#C[C@H]3O[C@H](CO)[C@@H](O)[C@H](O)[C@@]3(O)C#Cc3ccccc3)cn2)cc1 [Compound A81],< 0.1 nM
8,COc1ccc(-n2cc(C#C[C@H]3O[C@H](CO)[C@@H](O)[C@H](O)[C@@]3(O)C#Cc3cnn(C)c3)cn2)cc1 [Compound A82],< 0.1 nM
9,Cn1cc(C#C[C@@]2(O)[C@@H](C#Cc3cnn(C4CCC(F)(F)CC4)c3)O[C@H](CO)[C@@H](O)[C@@H]2O)cn1 [Compound A83],2 nM
10,Cn1cc(C#C[C@@]2(O)[C@@H](C#Cc3cnn(-c4ccccc4)c3)O[C@H](CO)[C@@H](O)[C@@H]2O)cn1 [Compound A84],0.25 nM
11,Cn1cc(C#C[C@@]2(O)[C@@H](C#Cc3cnn(C4CCCCC4)c3)O[C@H](CO)[C@@H](O)[C@@H]2O)cn1 [Compound A85],2 nM
12,CCC#C[C@@]1(O)[C@@H](C#Cc2cnn(-c3ccccc3)c2)O[C@H](CO)[C@@H](O)[C@@H]1O [Compound A87],32 nM
13,OC[C@H]1O[C@H](C#Cc2cnn(-c3ccccc3)c2)[C@](O)(C#CC2CC2)[C@@H](O)[C@@H]1O [Compound A88],4 nM
14,O=S(=O)(O)c1cccc(C#C[C@@]2(O)[C@@H](C#Cc3cnn(-c4ccc(OC[C@H](O)CO)cc4)c3)O[C@H](CO)[C@@H](O)[C@@H]2O)c1 [Compound A89],16 nM
15,[2H]C([2H])([2H])Oc1ccc(-n2cc(C#C[C@H]3O[C@H](CO)[C@@H](O)[C@H](O)[C@@]3(O)C#CC3CC3)cn2)cc1 [Compound A90],< 0.1 nM
16,OC[C@@H](O)COc1ccc(-n2cc(C#C[C@H]3O[C@H](CO)[C@@H](O)[C@H](O)[C@@]3(O)C#Cc3cnn(C[C@H](O)CO)c3)cn2)cc1 [Compound A91],8 nM
17,OC[C@H]1O[C@H](C#Cc2cnn(-c3cccc(Cl)c3)c2)[C@](O)(C#CC2CC2)[C@@H](O)[C@@H]1O [Compound A92],2 nM
18,OC[C@H]1O[C@H](C#Cc2cnn(-c3ccc(F)cc3)c2)[C@](O)(C#CC2CC2)[C@@H](O)[C@@H]1O [Compound A93],2 nM
19,Cc1ccc(-n2cc(C#C[C@H]3O[C@H](CO)[C@@H](O)[C@H](O)[C@@]3(O)C#CC3CC3)cn2)cc1 [Compound A94],< 0.1 nM
20,OC[C@H]1O[C@H](C#Cc2cnn(-c3ccc(C(F)(F)F)cc3)c2)[C@](O)(C#CC2CC2)[C@@H](O)[C@@H]1O [Compound A95],4 nM
21,N#Cc1ccc(-n2cc(C#C[C@H]3O[C@H](CO)[C@@H](O)[C@H](O)[C@@]3(O)C#CC3CC3)cn2)cc1 [Compound A96],4 nM
22,COc1ccc(-n2cc(C#C[C@H]3O[C@H](CO)[C@@H](O)[C@H](O)[C@@]3(O)C#CC3CC3)cn2)cc1 [Compound A97],< 0.1 nM
